Data on 16 molecules can be found in ChEMBL document CHEMBL1143153, “BACE-1 inhibitors part 1: identification of novel hydroxy ethylamines (HEAs)” (Bioorg Med Chem Lett, 2008).

One assay deals with Cathepsin D (Homo sapiens, UniProt P07339). In words: Inhibition of cathepsin D.
For assay [1], the target named is T1, Beta-secretase 1 (Homo sapiens, UniProt P56817). The class given is cell-based, SH-SY5Y.
In another assay the target is T2, Beta-secretase 2 (Homo sapiens, UniProt Q9Y5Z0).
T2 sequence (Q9Y5Z0 whole entry): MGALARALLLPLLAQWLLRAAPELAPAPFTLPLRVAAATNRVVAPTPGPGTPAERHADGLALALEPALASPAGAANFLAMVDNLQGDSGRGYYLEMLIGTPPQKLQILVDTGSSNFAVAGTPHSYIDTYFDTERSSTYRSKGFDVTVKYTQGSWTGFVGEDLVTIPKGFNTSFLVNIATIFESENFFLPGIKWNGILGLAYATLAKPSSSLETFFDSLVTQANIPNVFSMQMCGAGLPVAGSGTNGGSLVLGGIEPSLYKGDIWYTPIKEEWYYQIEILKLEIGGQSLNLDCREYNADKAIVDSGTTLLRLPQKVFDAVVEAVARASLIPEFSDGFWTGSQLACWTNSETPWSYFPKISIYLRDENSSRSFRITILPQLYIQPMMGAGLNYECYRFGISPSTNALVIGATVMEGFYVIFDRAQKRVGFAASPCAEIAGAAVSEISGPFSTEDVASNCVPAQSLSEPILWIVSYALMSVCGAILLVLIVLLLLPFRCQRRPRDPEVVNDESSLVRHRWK
Kind of assay: Inhibition of BACE2.

Assay [2] deals with T1, Beta-secretase 1. Kind of assay: Inhibition of BACE1 expressed in SHSY5Y cells assessed as reduction of amyloid beta 40 production. The class given is cell-based, SH-SY5Y.
The target in assay [3] is T1, Beta-secretase 1. In words: Inhibition of BACE1.

T1 sequence (P56817 whole entry): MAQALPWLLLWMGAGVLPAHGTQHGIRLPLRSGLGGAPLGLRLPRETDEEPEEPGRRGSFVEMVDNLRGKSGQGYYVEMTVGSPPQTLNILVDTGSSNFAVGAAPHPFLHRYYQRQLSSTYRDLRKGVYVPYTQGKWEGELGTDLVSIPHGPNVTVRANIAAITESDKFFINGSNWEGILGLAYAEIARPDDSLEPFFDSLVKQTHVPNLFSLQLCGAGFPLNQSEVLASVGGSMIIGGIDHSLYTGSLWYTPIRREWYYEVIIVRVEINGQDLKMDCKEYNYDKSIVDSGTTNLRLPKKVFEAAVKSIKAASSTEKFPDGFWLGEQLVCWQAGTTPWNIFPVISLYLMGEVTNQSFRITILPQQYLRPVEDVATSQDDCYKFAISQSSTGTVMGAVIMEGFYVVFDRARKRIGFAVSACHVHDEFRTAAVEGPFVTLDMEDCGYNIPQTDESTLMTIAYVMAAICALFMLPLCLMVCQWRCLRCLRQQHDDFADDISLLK
Sequence of Cathepsin D (P07339 65-162 limits assumed): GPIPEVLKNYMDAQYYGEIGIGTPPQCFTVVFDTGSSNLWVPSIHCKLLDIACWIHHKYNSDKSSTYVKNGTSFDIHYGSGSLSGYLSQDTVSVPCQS
Sequence of Cathepsin D (P07339 169-412 limits assumed): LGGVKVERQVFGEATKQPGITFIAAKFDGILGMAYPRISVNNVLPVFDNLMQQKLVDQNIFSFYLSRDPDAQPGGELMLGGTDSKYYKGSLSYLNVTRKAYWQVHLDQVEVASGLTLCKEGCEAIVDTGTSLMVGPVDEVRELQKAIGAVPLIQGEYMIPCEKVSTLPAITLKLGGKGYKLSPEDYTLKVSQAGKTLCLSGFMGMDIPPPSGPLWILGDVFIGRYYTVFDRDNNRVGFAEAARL

By IC50 is commonly meant the concentration that gives 50% inhibition. In the case of `CC(C)Nc1cc(C(=O)N[C@@H](Cc2ccccc2)[C@H](O)CN[C@@H](C)C(=O)NC2CCCCC2)cc(N2CCCC2=O)c1`, the IC50 against Cathepsin D was determined as 5410 nM; on Beta-secretase 1 [1] it was 280 nM; on Beta-secretase 2 it was 830 nM; on Beta-secretase 1 [2] it was 330 nM; on Beta-secretase 1 [3], 39 nM.

`C[C@H](NC[C@@H](O)[C@H](Cc1ccccc1)NC(=O)c1cc(N2CCCC2)cc(N2CCCC2=O)c1)C(=O)NC1CCCCC1`: the IC50 is 9280 nM against Cathepsin D, 8790 nM against Beta-secretase 2 and 860 nM against Beta-secretase 1 [3].

With `CC(C)CNc1cc(C(=O)N[C@@H](Cc2ccccc2)[C@H](O)CN[C@@H](C)C(=O)NC2CCCCC2)cc(N2CCCC2=O)c1`, the IC50 against Cathepsin D was found to be 3090 nM; at Beta-secretase 2, 650 nM; at Beta-secretase 1 [3], 180 nM.

On to `CC(C)Oc1cc(C(=O)N[C@@H](Cc2ccccc2)[C@H](O)CN[C@@H](C)C(=O)NC2CCCCC2)cc(N2CCCC2=O)c1`, for which the half-inhibitory concentration (IC50) against Cathepsin D turned out to be 12300 nM; at Beta-secretase 1 [1], 1180 nM; against Beta-secretase 2, 4790 nM; on Beta-secretase 1 [2], 1130 nM; on Beta-secretase 1 [3], 120 nM.

`CC(C)C[C@H](NC(=O)c1cccc(S(C)(=O)=O)c1)[C@H](O)CN[C@@H](C)C(=O)NC1CCCCC1`: on Beta-secretase 1 [3], the IC50 is over 500000 nM.

Consider `CCCCCOc1cc(C(=O)N[C@@H](Cc2ccccc2)[C@H](O)CN[C@@H](C)C(=O)NC2CCCCC2)cc(N2CCCC2=O)c1`, for which the values for the IC50 at Cathepsin D, against Beta-secretase 2 and against Beta-secretase 1 [3] were 430 nM, 400 nM and 32 nM, respectively.

Molecule `C[C@H](NC[C@H](O)[C@H](Cc1ccccc1)NC(=O)c1cccc(S(C)(=O)=O)c1)C(=O)NC1CCCCC1` returned an IC50 against Beta-secretase 1 [3] of over 500000 nM.

Consider `CCCc1cc(C(=O)N[C@@H](Cc2ccccc2)[C@H](O)CN[C@@H](C)C(=O)NC2CCCCC2)cc(N2CCCC2=O)c1`, for which the IC50 on Cathepsin D was 4570 nM; on Beta-secretase 1 [1], 690 nM; against Beta-secretase 2 it was 1580 nM; at Beta-secretase 1 [2], 990 nM; at Beta-secretase 1 [3], 72 nM.

Turning to `CCOc1cc(C(=O)N[C@@H](Cc2ccccc2)[C@H](O)CN[C@@H](C)C(=O)NC2CCCCC2)cc(N2CCCC2=O)c1`, the IC50 at Cathepsin D was 7940 nM; against Beta-secretase 1 [1], 1420 nM; against Beta-secretase 2, 5130 nM; at Beta-secretase 1 [2], 970 nM; against Beta-secretase 1 [3], 59 nM.

Regarding `COc1cc(C(=O)N[C@@H](Cc2ccccc2)[C@H](O)CN[C@@H](C)C(=O)NC2CCCCC2)cc(N2CCCC2=O)c1`, the IC50 at Cathepsin D was 30000 nM; on Beta-secretase 2, 28600 nM; against Beta-secretase 1 [3] it was 745 nM.

As to `CC(=O)Nc1ccc(C(=O)N[C@@H](Cc2ccccc2)[C@H](O)CN[C@@H](C)C(=O)NC2CCCCC2)cc1`, the 50% inhibitory concentration (IC50) on Cathepsin D was over 100000 nM; against Beta-secretase 2, over 100000 nM; on Beta-secretase 1 [3] it was 62000 nM.

In the case of `C[C@H](NC[C@@H](O)[C@H](Cc1ccccc1)NC(=O)c1cccc(N2CCCS2(=O)=O)c1)C(=O)NC1CCCCC1`, the IC50 at Cathepsin D was 10000 nM; on Beta-secretase 2 it was over 21000 nM; on Beta-secretase 1 [3], 1900 nM.

`CCCOc1cc(C(=O)N[C@@H](Cc2ccccc2)[C@H](O)CN[C@@H](C)C(=O)NC2CCCCC2)cc(N2CCCC2=O)c1`: the IC50 was found to be 47100 nM on Cathepsin D, 1380 nM against Beta-secretase 1 [1], 8240 nM on Beta-secretase 2 and 1690 nM on Beta-secretase 1 [2].

`CCCCCS(=O)(=O)c1cccc(C(=O)N[C@@H](Cc2ccccc2)[C@H](O)CN[C@@H](C)C(=O)NC2CCCCC2)c1`: the results for the IC50 against Cathepsin D and on Beta-secretase 2 were 600 nM and 3600 nM, respectively.

The molecule `C[C@@H](C(=O)NC1CCCCC1)N(C)C[C@@H](O)[C@H](Cc1ccccc1)NC(=O)c1cccc(S(C)(=O)=O)c1` came in with an IC50 against Beta-secretase 1 [3] of over 500000 nM.

For `CCOc1cc(C(=O)N[C@@H](Cc2ccccc2)[C@H](O)CN[C@@H](C)C(=O)NC2CCCCC2)cc(N2CCCC2)c1`, the values for the IC50 on Cathepsin D, against Beta-secretase 2 and against Beta-secretase 1 [3] were 6170 nM, 12900 nM and 1450 nM, respectively.
